Assays:
[1] = In vitro inhibition of N8-Acetylspermidine deacetylase from rat liver cytosol(apparent Ki); settings: for Ki: read-out: Ki app
[2] = (§1) In vitro inhibition of N8-Acetylspermidine deacetylase from rat liver cytosol; settings: read-out: Ki app
[3] = species: Rattus norvegicus; experiment: as §1
[4] = In vitro inhibition of N8-Acetylspermidine deacetylase from rat liver cytosol(apparent Ki); Ni means no inhibition

| Ki [1] [µM] | Compound | also measured |
| --- | --- | --- |
| 0.001 | NCCCNCCCCCC(=O)NO |  |
|  | NCCCNCCCCCC(=O)O | Ki [2]: 11 µM |
| 800 | CC(=O)NCCCCN |  |
|  | c1cnc2ccc3ncccc3c2c1 | Ki app [1]: No inhibition |
|  | CC(=O)NCCCCNCCCN | Km [3]: 11 µM |
| 4100 | NCCCCC(=O)O [5-AMINOVALERIC ACID] |  |
| 50 | NCCCCCC(=O)O [AMINOCAPROIC ACID] |  |
|  | c1ccc(-c2ccccn2)nc1 [DIPYRIDYL] | Ki [2]: 1900 µM |
|  | O=C(O)CN(CCN(CC(=O)O)CC(=O)O)CC(=O)O [EDETIC ACID] | Ki [2]: 3500 µM |
|  | NC(=O)CI [IODOACETAMIDE] | Ki app [4]: Not Active |
| 860 | CCN1C(=O)C=CC1=O [N-ETHYLMALEIMIDE] |  |
| 1300 | c1cnc2c(c1)ccc1cccnc12 [PHENANTHROLINE] |  |
| 38500 | CCCC(=O)[O-].[Na+] [SODIUM BUTYRATE] |  |

| Compound | Ki [1] [µM] | also measured |
| --- | --- | --- |
| Para-Hydroxymercuribenzoic acid | 150 |  |

— ChEMBL document CHEMBL1125463, “Inhibition of N8-acetylspermidine deacetylase by active-site-directed metal coordinating inhibitors” (J Med Chem, 1992)
